Experiments:
[1] = system: human umbilical vein endothelial cells; assay: Cell viability assay of human umbilical vein endothelial cells; format: cell-based; conditions: 24 hours
Protocol: A medium in a culturing plate containing cells grown covering the whole bottom of the culturing plate, was removed. The cells were washed with 10 ml of PBS, and then suspended and mixed well with 10 ml of medium (a part of the cells need to be suspended with Trypsin-EDTA buffer). The numbers of the cells were calculated by a hemocytometer, and the cells were diluted to an appropriate cell concentration and added into the wells of a 24 well culturing plate by an amount of 500 μl/well. The 24 well culturing plates were placed in an incubator at 37° C. in a humidified atmosphere containing 5% CO2. After the cells were attached onto the bottom of the wells, the medium in each well was removed, and fresh mediums with different concentrations of a test drug were added into wells, respectively (if the cells were suspension cells, the fresh medium may be added into the wells, directly). Then, the 24 well culturing plates were placed in an incubator at 37° C. in a humidified atmosphere containing 5% CO2 for 24 hours. After that, an upper medium in each well was removed. The cells were washed with a PBS buffer twice, and then an MTT solution which was prepared with a medium was added to each well. After the 24 well culturing plates were placed in an incubator at 37° C. for reacting 4-6 hours, an upper medium in each well was removed, and 100 μl of DMSO was added to each well to solubilize the formazan precipitates. After that, an ELISA reader was used to determine the absorbance for each well at 600 nm.
After human umbilical vein endothelial cells were treated with the different concentrations of L-Aspartic acid β-hydroxamate (CH) and different concentrations of L-Glutamic acid γ-hydroxamate (DH) for 24 hours, respectively, the cell viability assays were performed to the treated human umbilical vein endothelial cells and the angiogenesis conditions of the human umbilical vein endothelial cells were recorded. The results of the cell viability assays are shown as FIGS. 13 (A) and 14 (A). Photographs for the human umbilical vein endothelial cells treated with L-Aspartic acid β-hydroxamate (CH) and human umbilical vein endothelial cells treated with L-Glutamic acid γ-hydroxamate (DH) are shown as FIGS. 13 (B) and 14 (B), respectively.

[2] = system: human umbilical vein endothelial cells; assay: Tube formation assay (angiogenesis); format: cell-based
Protocol: 13. Tube Formation Assay (Malinda et al., 1999)
1μ-Slide Angiogenesis ibiTreat chambers were coated with 10 μl Matrigel™ Mixtrix and placed in an incubator at 37° C. for 1 hour. 40 μl of a 3×10^5 cells/ml cell suspension was added to each chamber and left still for 20 minutes to let the cells attach to the chamber. After that, the medium in each chamber was removed. Fresh mediums with different concentrations of a test drug were added to the chambers, respectively and placed in an incubator at 37° C. After 18 hours, the angiogenesis appearance in each chamber was observed and photographed for recording.

[3] = system: matrix metalloproteinase-9; assay: Gelatin gel zymography of PMA-induced HT 1080 cells, MMP-9 activity; format: cell-based, Human; conditions: HT 1080 cells, 0.4, 0.8, 1.2 and 1.6 mM, 24 hours
Protocol: (§1) 4. Gelatin Gel Zymography (Shim et al., 2003; Park et al., 2005; Hwang et al., 2006)
(§2) HT 1080 cells with appropriate cell numbers were cultured in 60 mm culturing plates for 12 hours, respectively. After the cells were attached onto the bottom of the plate and formed a monolayer, the medium in the plate was removed. Fresh serum free mediums with different concentrations of a test sample were added to the plates, respectively, and 100 nM PMA was added to each plate to induce the cells to express great quantities of matrix metalloproteinase-2 and matrix metalloproteinase-9, and the plates were placed in a temperature of 37° C. for 24 hours. After centrifugation, each cultured supernatant were saved and mixed with SDS-sample buffer under the same protein contents which were then injected into a 10% SDS-polyacrylamide gel (containing 1 mg/ml gelatin) and then electrophoresed. After the electrophoresis was completed, the gel was taken out and washed with 20 mM Tris-HCl containing 25% isopropanol three times; 10 minutes per time. Then the gel was equilibrated with 20 mM Tris-HCl for 30 minutes, and finally an incubate buffer (5 mM CaCl2 and 1 mM ZnCl2) was added to the gel and reacted with the gel overnight. Then the gel was stained with coomassie blue, and positions having matrix metalloproteinase activity of the gel presented a white color.

[4] = system: matrix metalloproteinase-2; assay: Gelatin gel zymography of PMA-induced HT 1080 cells, MMP-2 activity; format: cell-based, Human; conditions: HT 1080 cells, 0.4, 0.8, 1.2 and 1.6 mM, 24 hours
Protocol: as §1, §2

NC(CC(=O)NO)C(=O)O [CH, L-Aspartic acid β-hydroxamate]
cytotoxicity to human umbilical vein endothelial cells ([1]; 0.25 mM): no cytotoxicity | viability of human umbilical vein endothelial cells ([1]; 0.75 mM): slight decreases | angiogenesis inhibition at 0.25 mM ([2]; 0.25 mM): already had an effect of inhibiting angiogenesis | inhibition rate to angiogenesis ([2]; about 0.1-1.5 mM, stated as embodiment): 10-90% | angiogenesis compared with the control group ([2]; increasing concentrations): significantly inhibited

N[C@@H](CCC(=O)O)C(=O)O [D, L-Glutamic acid, reference compound]
matrix metalloproteinase-9 inhibiting activity [3]: no inhibiting effect | matrix metalloproteinase-2 inhibiting activity [4]: no inhibiting effect

— patent publication US20120101163A1, “COMPOSITION FOR INHIBITING CANCER METASTASIS” (TAIPEI MEDICAL UNIVERSITY, priority 2010, published 2012)
